One block for each molecule: values may come before it.
Tests used:
[1] = target: aryl-alcohol oxidase (AAO) (Pleurotus eryngii, UniProt O94219, F424Y); test: conversion to FDCA by purified variant with catalase, HPLC; type: biochemical
Source text: (§1) conversion to FDCA by purified variant with catalase, HPLC on aryl-alcohol oxidase (AAO) | production of FDCA from HMF by native AAO, and its F501H, F397Y, and I500M/F501 W variants

[2] = target: aryl-alcohol oxidase (AAO) (Pleurotus eryngii, UniProt O94219, F528H); test: as above; type: biochemical
Source text: as §1

[3] = target: aryl-alcohol oxidase (AAO) (Pleurotus eryngii, UniProt O94219, I527M/F528W); test: as above; type: biochemical
Source text: as §1

[4] = target: T1, aryl-alcohol oxidase (AAO) (Pleurotus eryngii, UniProt O94219); test: HPLC and 1H-NMR of oxidation by purified AAO; type: biochemical; parameters: mature AAO cDNA (GenBank AF064069) expressed in E. coli
T1 sequence (O94219 28-593): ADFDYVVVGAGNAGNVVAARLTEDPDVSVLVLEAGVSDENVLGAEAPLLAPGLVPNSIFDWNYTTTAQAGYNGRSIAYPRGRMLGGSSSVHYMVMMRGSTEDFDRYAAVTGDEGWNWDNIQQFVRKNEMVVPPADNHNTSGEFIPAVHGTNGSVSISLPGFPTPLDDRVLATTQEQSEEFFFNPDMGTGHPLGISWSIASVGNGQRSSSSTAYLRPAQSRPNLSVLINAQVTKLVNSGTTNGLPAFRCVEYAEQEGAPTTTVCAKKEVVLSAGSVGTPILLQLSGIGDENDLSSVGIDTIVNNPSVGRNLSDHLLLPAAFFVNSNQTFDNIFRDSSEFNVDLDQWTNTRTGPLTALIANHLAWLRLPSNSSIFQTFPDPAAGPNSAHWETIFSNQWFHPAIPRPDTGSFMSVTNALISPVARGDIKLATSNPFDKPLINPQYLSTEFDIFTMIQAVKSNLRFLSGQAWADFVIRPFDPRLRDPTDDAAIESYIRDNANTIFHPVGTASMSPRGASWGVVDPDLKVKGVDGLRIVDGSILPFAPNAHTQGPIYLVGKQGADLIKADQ

[5] = target: T1, aryl-alcohol oxidase (AAO); test: biochemical
[6] = target: T1, aryl-alcohol oxidase (AAO); test: turnover at saturating aldehyde, spectrophotometric acid formation; type: biochemical; parameters: mature AAO cDNA (GenBank AF064069) expressed in E. coli
Protocol: turnover at saturating aldehyde, spectrophotometric acid formation on aryl-alcohol oxidase (AAO) | Turnovers for aldehyde oxidation were calculated at saturating concentration of p-anisaldehyde

SMILES: O=Cc1ccc(CO)o1 [HMF]
% conversion [1]: 75.7 % conversion
% conversion [2]: 97.9 % conversion
% conversion [3]: 52.8 % conversion
HPLC and 1H-NMR of oxidation by purified AAO [4]: 2.54 h⁻¹

IC50 [5]: ~158 µM
SMILES: OO [H2O2]

SMILES: COc1ccc(C=O)cc1 [p-anisaldehyde]
p-Anisaldehyde / kcat [6]: 0.122 s⁻¹

Source: article PMC6737615, “Complete oxidation of hydroxymethylfurfural to furandicarboxylic acid by aryl-alcohol oxidase” (Biotechnology for Biofuels, 2019)
